Results on four compounds are retold here after patent US4409240A, “Derivatives of dihydroxybenzoic acid and pharmaceutical composition thereof” (Kureha Kagaku Kogyo Kabushiki Kaisha, priority 1981, dated 1983).

The nature of one data set: in vivo. As to conditions: mouse, in vivo, po. An excerpt: (§1) Acute toxicity was examined by administering perorally an aqueous solution of each Specimen to female JCL-ICR mouse of 5 to 6 weeks after birth. As the Specimen, trans-4-[N-(3',4'-dihydroxybenzoyl)aminomethyl]cyclohexane-1-carboxylic acid, 4-[N-(3',4'-dihydroxybenzoyl)amino]benzoic acid and 6-[N-(3',4'-dihydroxybenzoyl)amino]caproic acid were used.

The subject of a further data set is female JCL-ICR mouse. Briefly: Acute toxicity. The settings on record: peroral, aqueous solution, female JCL-ICR mouse 5 to 6 weeks.
Source text: as §1

The test system of data set [1] is platelet aggregation (rabbit platelet rich plasma). Briefly: Inhibitory effect on platelet aggregation (induced by sodium arachidonate). As to conditions: Oryctolagus cuniculus, average value, 1.5 mM of each Specimen, rabbit PRP, preincubated 37° C. 5 min, read-out: Inhibition rate of platelet aggregation. It is filed as cell-based. As to the method: Rabbit platelet rich plasma (PRP) was used for Aggregation Tests. PRP was prepared by centrifugation of blood collected from the ear vein of Rabbit and diluted into number-concentration 300,000/μl with platelet poor plasma. Platelet aggregation was induced by Sodium Arachidonate and monitored (measured) with a four channel platelet aggregation Tracer PAT-4A (Niko Bioscience Co., Japan). Aggregation Tracer tube containing 230 μl PRP was preincubated at 37° C. for 5 min with each Specimen.

Data set [2] concerns polynuclear leukocyte migration. Briefly: Inhibitory effect on polynuclear leukocyte migration (Granuloma CMC pouch method). It is filed as in vivo, rat (male, Donyru). The settings on record: average value; 100 mg p.o./kg body weight; 6 hours after the administration; rat CMC pouch. The protocol:
After shearing the rat on the dorsum about 5 cm in diameter, 5 ml of air was hypodermically injected into the site to form a pouch. After 24 hours, 5 ml of aqueous 2% (w/v) solution of CMC sodium salt at 37° C. was injected into the pouch, and at the same time an aqueous solution of each Specimen was administered perorally to the rat.
After the injection of CMC, the liquid in the pouch was collected as the time passed by in an amount of 0.5 ml and stained. Then the number of polynuclear leukocyte migrated into the pouch was counted.

The next data set concerns adjuvant arthritis. Briefly: Prophylactic effect on adjuvant arthritis. The class given is in vivo, rat (female JCL-SD). As to conditions: average value of prophylactic rate; 100 mg p.o./kg/day for continuous 14 days; rat. The protocol: Freund's complete adjuvant (0.6 mg/0.1 ml) was inoculated into the right hind paw of the etherized rat. After palinesthesia, each specimen was administered perorally once a day for 14 continuous days.

`O=C(O)c1ccc(NC(=O)c2ccc(O)c(O)c2)cc1` [4-[N-(3',4'-dihydroxybenzoyl)amino]benzoic acid] had an LD50 in “in vivo” of over 3000 mg/kg. For the same compound, the “abnormality on the mouse” value in the data set on female JCL-ICR mouse is listed as “no abnormality on the mouse was found”.
Consider `O=C(O)CCCCCNC(=O)c1ccc(O)c(O)c1` [6-[N-(3',4'-dihydroxybenzoyl)amino]caproic acid], for which the median lethal dose (LD50) in “in vivo” is over 3000 mg/kg. Besides, the “abnormality on the mouse” value in the data set on female JCL-ICR mouse is listed as “no abnormality on the mouse was found”.
For `O=C(NC[C@H]1CC[C@H](C(=O)O)CC1)c1ccc(O)c(O)c1` [trans-4-[N-(3',4'-dihydroxybenzoyl)aminomethyl]cyclohexane-1-carboxylic acid], the inhibition at 1500 µM in data set [1] came out at 100%. Further, the “Inhibition rate of polynuclear leukocyte migration” value in data set [2] is on record as 35%. In the data set on adjuvant arthritis, the “Prophylactic effect on adjuvant arthritis” value is on record as 30%. Besides, the median lethal dose (LD50) in “in vivo” was over 3000 mg/kg. Besides, in the data set on female JCL-ICR mouse, the “abnormality on the mouse” value is “no abnormality on the mouse was found”.
Turning to `O=C(NC[C@H]1CC[C@H](C(=O)O)CC1)c1ccccc1O.[Na]` [Sodium trans-4-(N-salicyloyl-aminomethyl)cyclohexane-1-carboxylic acid, reference compound], the inhibition at 1500 µM in data set [1] was 10%. Also, in data set [2], the “Inhibition rate of polynuclear leukocyte migration” value is 5%. For the same compound, the “Prophylactic effect on adjuvant arthritis” value with adjuvant arthritis is 5%.
